These results are taken from patent US20250152564A1, “PROPYLENE KETONE-CONTAINING BIOINHIBITOR, PREPARATION METHOD THEREFOR, AND USE THEREOF” (SHANGHAI HANSOH BIOMEDICAL CO., LTD., priority 2022, published 2025).

Molecules are shown by their SMILES.

What is called MRT is the average time that molecules of a dose stay in the body.

Data set [1] addresses FGFR2 (Homo sapiens (Human), UniProt P21802). Description: TR-FRET kinase inhibition assay, FGFR2. It counts as biochemical. Conditions: ATP Km concentration (30 μM). In short, it runs like this: (§1)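 Kinase-domain fragments in 50 mM HEPES pH 7.5 with 10 mM MgCl2, ATP at Km plus peptide substrate; 60 min reaction at room temperature, then EDTA/Eu-anti-phosphotyrosine (PT66) detection for 60 min (30 min for V564F). 11-point 3-fold dilutions from 1000 nM; IC50 from four-parameter fit of 665/620 nm ratio inhibition.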

For data set [2], the target named is FGFR3 (Homo sapiens (Human), UniProt P22607). Description: TR-FRET kinase inhibition assay, FGFR3. It counts as biochemical. The following applies: ATP Km concentration (30 μM). The method, then:
To measure the IC50 values of the compounds against FGFR1, FGFR2, FGFR3, FGFR4, and FGFR2 V564F at ATP Km concentrations by TR-FRET method.
TR-FRET (time-resolved fluorescence resonance energy transfer) method was used to detect the inhibitory activity of the compounds on FGFR1, FGFR2, FGFR3, FGFR4, and FGFR2 V564F kinase region fragments. The highest detection concentration of the compounds in 5 kinase experiments was 1000 nM, which was diluted in 3 folds, with a total of 11 concentrations (1000 nM to 0.017 nM). A kinase buffer (50 mM HEPES pH 7.5, 1 mM EGTA, 10 mM MgCl2, 2 mM DTT, and 0.01% Tween-20) was used to prepare 4× enzyme solution, 4× compound solutions diluted in gradient, and a 2×ATP/Peptide substrate solution. To a 384-well plate, 2.5 μL of enzyme solution and 2.5 μL of diluted […] compound solution were added, and 5 μL of 2×ATP/Peptide substrate solution was then added. After reacting at room temperature for 60 minutes for FGFR1, FGFR2, FGFR3, and FGFR2 V564F kinases, and 120 minutes for FGFR4 kinase, 10 μL of a 2× termination and detection mixed liquid prepared with 1×LANCE detection buffer with an EDTA concentration of 20 mM and a Europium-anti-phosphotyrosine (PT66) concentration of 2 nM was added to each well of the plate. After reacting at room temperature for 60 minutes for FGFR1, FGFR2, FGFR3, and FGFR4, and 30 minutes for FGFR2 V564F, the fluorescence signal value in each well of the plate was measured by a microplate reader.
1) Inhibition rate (%): Calculation was performed on the raw data (665 nm/620 nm reading ratio) according to the following formula to obtain the inhibition rate. Inhibition rate %=[(mean value in positive control well−value in sample well)/(mean value in positive control well−mean value in negative control well)]×100, wherein the positive control well was a reaction well without a compound […], and the negative control well was a reaction wells without an enzyme.
2) Curve fitting: Log(inhibitor) vs. response—Variable slope (four parameters) in GraphPad Prism 6 was used for fitting equation analysis of the compound concentration and the corresponding inhibition rate, and the curve was fitted to obtain the IC50 values of the compounds.

Data set [3] concerns NCI-H716 cells. The data set is described as follows: CellTiter-Glo cell proliferation inhibition, NCI-H716. The format is cell-based. The following applies: Homo sapiens, 72 h, read-out: NCI-H716 cell proliferation inhibition rate IC50. Put shortly:
(§2)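 Cells plated, compound added next day as 9-point 3-fold series from 1000 nM to 0.15 nM, incubated 72 h. Viability by CellTiter-Glo luminescence; IC50 from four-parameter variable-slope fit of percent inhibition.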
Background: In ATP-based viability assays light output follows the ATP content of the culture.

The target in data set [4] is FGFR2 V564F (Homo sapiens (Human), UniProt P21802, V564F). Description: TR-FRET kinase inhibition assay, FGFR2 V564F. It counts as biochemical. Conditions: ATP Km concentration (20 μM). Put shortly:
as §1

Data set [5] is described as follows: Pharmacokinetic experiment in SD rats after oral administration. The format is in vivo. Conditions: 5 mg/kg, plasma; for AUC(0-t) / AUC(0-inf) / half-life / MRT / Cmax: male, Sprague-Dawley (SD), rat, po; for AUC(0-t): read-out: Area under the curve AUC0-t; for AUC(0-inf): read-out: Area under the curve AUC0-∞; for half-life: read-out: Half-life t1/2 (converted); for MRT: read-out: Mean residence time MRT; for Cmax: read-out: Plasma concentration Cmax; for Time to peak tmax: p.o.

The test system of data set [6] is BaF3 FGFR2-BICC1 V564F cells. The data set is described as follows: CellTiter-Glo cell proliferation inhibition, BaF3 FGFR2-BICC1 V564F. It counts as cell-based. Conditions: Mus musculus, 72 h, read-out: BaF3 FGFR2-BICC1 V564F inhibitory activity IC50. In short, it runs like this: as §2
Data set [7] concerns the target FGFR1 (Homo sapiens (Human), UniProt P11362). The data set is described as follows: TR-FRET kinase inhibition assay, FGFR1. It counts as biochemical. Conditions: ATP Km concentration (30 μM). Put shortly: as §1
For orientation: Time-resolved FRET reads energy transfer from a long-lived donor to a nearby acceptor.

Sequence of FGFR1 (P11362 478-767): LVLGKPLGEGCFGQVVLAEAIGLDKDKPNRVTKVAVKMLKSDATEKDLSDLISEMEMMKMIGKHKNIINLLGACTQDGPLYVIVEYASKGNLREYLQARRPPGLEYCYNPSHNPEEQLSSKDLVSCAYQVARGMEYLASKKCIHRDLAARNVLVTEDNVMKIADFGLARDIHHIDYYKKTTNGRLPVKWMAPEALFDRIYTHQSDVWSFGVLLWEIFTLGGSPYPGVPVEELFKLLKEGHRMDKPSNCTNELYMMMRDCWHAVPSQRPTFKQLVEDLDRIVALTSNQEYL
Sequence of FGFR2 V564F (P21802 481-770 V564F): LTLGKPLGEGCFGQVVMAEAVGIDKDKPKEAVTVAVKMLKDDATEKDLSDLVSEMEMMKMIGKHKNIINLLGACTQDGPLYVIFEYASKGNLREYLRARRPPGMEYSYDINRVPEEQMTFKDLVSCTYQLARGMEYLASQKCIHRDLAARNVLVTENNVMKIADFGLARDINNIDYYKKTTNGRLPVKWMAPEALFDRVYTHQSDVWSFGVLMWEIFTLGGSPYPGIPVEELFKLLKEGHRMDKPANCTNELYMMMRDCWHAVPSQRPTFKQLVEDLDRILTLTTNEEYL
Sequence of FGFR2 (P21802 481-770): as the sequence (P21802 481-770 V564F) above, with F84V counted along it
Sequence of FGFR3 (P22607 472-761): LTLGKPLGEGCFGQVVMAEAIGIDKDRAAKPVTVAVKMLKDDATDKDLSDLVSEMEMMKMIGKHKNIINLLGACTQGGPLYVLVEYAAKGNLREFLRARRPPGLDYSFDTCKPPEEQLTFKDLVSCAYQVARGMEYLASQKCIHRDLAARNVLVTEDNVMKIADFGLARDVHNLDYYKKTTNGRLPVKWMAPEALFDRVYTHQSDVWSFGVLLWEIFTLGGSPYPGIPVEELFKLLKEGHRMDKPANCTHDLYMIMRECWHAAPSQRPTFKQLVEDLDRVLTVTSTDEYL

The compound `C=CC(=O)N1CC[C@H](n2nc(C#Cc3ccc4ccnn4c3)c3c(N)ncc(C(=O)CC)c32)C1` [Example 72, (S)-1-(3-(4-amino-7-propionyl-3-(pyrazolo[1,5-a]pyridine-6-ethynylene)-1H-pyrazolo[4,3-c]pyridin-1-yl)pyrrolidine-1-methyl)prop-2-en-1-one] yielded an IC50 in data set [1] of 1.4 nM. This compound also displayed an IC50 in data set [2] of 1.6 nM. Also, the IC50 in data set [3] worked out at 1.97 nM. This compound also registered an IC50 in data set [4] of 2.1 nM. Further, in data set [5], the AUC(0-t) was 1150 ng·h/mL, the AUC(0-inf) was found to be 1150 ng·h/mL, the half-life was 0.6 h and the MRT was found to be 2.26 h. Also, in data set [5], the Cmax came to 298 ng/mL and the Time to peak tmax came to 0.5 h. The IC50 in data set [6] was found to be 1.5 nM. The IC50 in data set [7] is 7.3 nM.

With `C=CC(=O)N1CC[C@H](n2nc(C#Cc3ccc4cn(C)nc4c3)c3c(N)ncc(C(C)=O)c32)C1` [Example 82, (S)-1-(3-(7-acetyl-4-amino-3-((2-methyl-2H-indazol-6-yl)alkynyl)-1H-pyrazolo[4,3-c]pyridin-1-yl)pyrrolidine-1-methyl)prop-2-en-1-one], in data set [1], the IC50 was 0.3 nM. The IC50 in data set [2] was found to be 0.5 nM. In addition, the IC50 in data set [3] turned out to be 0.21 nM. In data set [4], this compound registered an IC50 of 0.3 nM. Moreover, in data set [5], the AUC(0-t) was determined as 2800 ng·h/mL, the AUC(0-inf) was determined as 2910 ng·h/mL, the half-life is 1.4 h and the MRT is 3.05 h. Besides, in data set [5], the Cmax worked out at 677 ng/mL and the Time to peak tmax was determined as 1 h. The IC50 in data set [6] is 0.5 nM. Besides, in data set [7], the IC50 came to 1.4 nM.
